The values that follow come from patent US20240041823A1, “USE OF MYCOLACTONE (MLN) AND DERIVATIVES THEREOF FOR TREATMENT OF MICROBIAL INFECTIONS” (priority 2022, published 2024).

Values joined by “and” are separate entries in the source; they are usually repeats but may differ in a detail not shown here. Equal entries are not always repeated. “Also recorded” adds a separate entry of the source. Where two headings read alike, the source gives them in different places.

The subject of data set [1] is SARS-CoV-2 Omicron strain. The data set is described as follows: microbe, parasite or virus in culture. It is filed as cell-based. The conditions noted are these: read-out: efficacy (viral titer reduction).
The test system of another data set is SARS-CoV-2 Delta strain. The data set is described as follows: microbe, parasite or virus in culture. It is filed as cell-based. To be noted: read-out: efficacy (viral titer reduction).
The subject of the next data set is SARS-CoV-2 Alpha strain. The data set is described as follows: microbe, parasite or virus in culture. It is filed as cell-based. The conditions noted are these: read-out: efficacy (viral titer reduction).
Data set [2] has as its system immortalized Human fetal renal cell line HEK293. To be noted: HEK293, maximum concentration tested 1.34 μM.
In data set [3] the test system is SARS-CoV-2. The data set is described as follows: Viral inhibition by Spike immunohistochemistry (IHC) assay in A549-ACE2 cells. It is filed as cell-based. To be noted: for IC50: read-out: IC-50, Anti-SARS-CoV-2; for 80% Inhibition of SARS-CoV-2: concentration giving 80% inhibition.
For data set [4] the following is noted: intradermal injection; cited from earlier work.
The test system of data set [5] is Human alveolar cell line A549. To be noted: A549, maximum concentration tested 1.34 μM.
Data set [6] relates to A549, HEK293, and HUH7.1 cell lines.
Data set [7] relates to SARS-CoV-2. It is filed as cell-based.
In data set [8] the test system is Human hepatoma cell line Huh7.1. The conditions noted are these: Huh7.1, maximum concentration tested 1.34 μM.
The mark [9] stands for this setting: Severe acute respiratory syndrome coronavirus 2, plaque assay.

For `CCC(CC)COC(=O)[C@H](C)N[P@](=O)(OC[C@H]1O[C@@](C#N)(c2ccc3c(N)ncnn23)[C@H](O)[C@@H]1O)Oc1ccccc1` [Remdesivir, reference compound], the IC50 in data set [1] (setting [9]) was 125 nM; with SARS-CoV-2 Delta strain (setting [9]) it was 139 nM; in the data set on SARS-CoV-2 Alpha strain (setting [9]) it was 248 nM.

What is called inhibition is the percentage by which the read-out fell short of the control. A higher inhibition goes with a response far below the control. Turning to mycolactone [MLN], the Cytotoxicity was determined as 40.30±3.6% in [2], 17.12±9.1% in data set [5] and 36.25±5.6% in data set [8]. Also, the IC50 was determined as 20 ± 6 nM with SARS-CoV-2 [3] (A549-ACE2 cells, Spike IHC); 7 nM in data set [1] (plaque assay); 15 nM in the data set with SARS-CoV-2 Delta strain (plaque assay); 20 nM in the data set with SARS-CoV-2 Alpha strain (plaque assay). Further, the inhibition with SARS-CoV-2 [3] (at 20 nM) is given as 90%; with SARS-CoV-2 [3] (at 42 nM), 100%. For the same compound, in the data set on SARS-CoV-2 [3] (at 30nM, IHC assay in triplicate), the average inhibition is 84%. In addition, in the data set with SARS-CoV-2 [3], the “80% Inhibition of SARS-CoV-2” value was 0.03 µM and 0.03 ± 0.005 µM. For the same compound, in the data set with SARS-CoV-2 [3] (up to 60nM, IHC assay in triplicate), the “viral inhibition against SARS-CoV-2” value is listed as 100%. For the same compound, the “half-life in the periphery blood circulation” value in data set [4] is reported as “short”. Further, in [6] (1.34 μM maximum concentration versus average IC50s), the “cytotoxicity IC50 breakpoint ratio versus anti-SARS-CoV-2 activity” value is recorded as “more than 65 ×”. Also, in data set [6] (in vitro), the “cytotoxicity against human cell lines” value was “not cytotoxic”. In addition, the “blocking of virus entry” value in the data set with SARS-CoV-2 [7] is given as “complete blocking activity; also recorded: completely blocks; also recorded: complete prevention”. In addition, the “blocking of virus spread” value in the data set on SARS-CoV-2 [7] is recorded as “complete blocking activity; also recorded: completely blocks; also recorded: complete prevention”.

Turning to `COc1cccc2[nH]c(C(=O)N[C@@H](CC(C)C)C(=O)N[C@@H](C[C@@H]3CCNC3=O)C(=O)CO)cc12` [PF-00835231, reference compound], in the data set on SARS-CoV-2 [3], the “80% Inhibition of SARS-CoV-2” value was 0.68 µM and the IC50 is 230 ± 30 nM. Further, in the data set with SARS-CoV-2 [3] (listed as PF-00835231 (Pfizer)), the “80% Inhibition of SARS-CoV-2” value was 0.68 ± 0.023 µM.
